The target of experiment [1] is Sigma non-opioid intracellular receptor 1 (Homo sapiens, UniProt Q99720). Nature of the experiment: DRUGMATRIX: Sigma1 radioligand binding (ligand: [3H] Haloperidol). In kind it is cell membranes, Jurkat, Membrane. The settings on record: Not Active = under 50% inhibition at 10 µM.
A short description of experiment [2]: DRUGMATRIX: Calcium Channel Type L, Phenylalkylamine radioligand binding (ligand: [3H] (-)-Desmethoxyverapamil (D-888)). In kind it is cell membranes, Rattus norvegicus, Wistar, Brain, Membrane. The settings on record: Not Active = under 50% inhibition at 10 µM.
The target of experiment [3] is T1, C-X-C chemokine receptor type 2 (Homo sapiens, UniProt P25025). Also: in other assays of this panel Not Active means under 50% inhibition at 10 µM.
T1 sequence (P25025 whole entry): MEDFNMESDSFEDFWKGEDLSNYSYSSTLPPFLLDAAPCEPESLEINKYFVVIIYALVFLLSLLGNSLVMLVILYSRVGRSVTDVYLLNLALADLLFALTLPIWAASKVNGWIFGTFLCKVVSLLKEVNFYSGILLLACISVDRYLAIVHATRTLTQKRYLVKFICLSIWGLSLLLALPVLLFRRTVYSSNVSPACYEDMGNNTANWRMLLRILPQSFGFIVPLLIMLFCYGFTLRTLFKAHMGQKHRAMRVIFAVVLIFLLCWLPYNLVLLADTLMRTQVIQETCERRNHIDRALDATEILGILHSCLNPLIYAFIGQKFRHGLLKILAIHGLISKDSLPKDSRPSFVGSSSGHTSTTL
In kind it is cell membranes, CHO-K1, Membrane. The settings on record: cho-k1.

The nature of experiment [4]: DRUGMATRIX: Nicotinic Acetylcholine radioligand binding (ligand: [125I] Epibatidine). The experiment is classed as cell membranes, Membrane. The settings on record: imr-32; Not Active = under 50% inhibition at 10 µM.
Experiment [5] can be described thus: DRUGMATRIX: Phorbol Ester radioligand binding (ligand: [3H] PDBu). In kind it is cell membranes, Mus musculus, ICR, Brain, Membrane. The settings on record: Not Active = under 50% inhibition at 10 µM.
Experiment [6] deals with Tyrosine-protein kinase Fyn (Homo sapiens, UniProt P06241). Kind of experiment: biochemical. The settings on record: insect cells. In kind it is cell-based, Insect cells.

The term IC50 denotes the concentration that inhibits the measured activity by half. Broadly, the Ki is the equilibrium dissociation constant of an inhibitor or competing ligand from its target.

Sequence of Tyrosine-protein kinase Fyn (P06241 whole entry): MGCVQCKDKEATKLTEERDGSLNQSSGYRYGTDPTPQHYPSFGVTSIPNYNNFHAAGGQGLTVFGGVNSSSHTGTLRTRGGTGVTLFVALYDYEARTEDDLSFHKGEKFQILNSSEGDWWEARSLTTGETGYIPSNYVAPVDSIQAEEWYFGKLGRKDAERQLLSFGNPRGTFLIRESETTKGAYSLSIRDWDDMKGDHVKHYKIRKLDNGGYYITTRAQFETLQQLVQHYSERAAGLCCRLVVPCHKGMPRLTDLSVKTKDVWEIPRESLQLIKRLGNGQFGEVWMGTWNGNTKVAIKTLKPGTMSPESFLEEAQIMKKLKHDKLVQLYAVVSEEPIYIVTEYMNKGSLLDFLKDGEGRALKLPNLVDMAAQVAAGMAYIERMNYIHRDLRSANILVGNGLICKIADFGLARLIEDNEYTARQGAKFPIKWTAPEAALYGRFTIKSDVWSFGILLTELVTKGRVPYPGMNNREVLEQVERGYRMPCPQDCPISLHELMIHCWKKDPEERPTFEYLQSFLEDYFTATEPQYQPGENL
Sequence of Sigma non-opioid intracellular receptor 1 (Q99720 whole entry): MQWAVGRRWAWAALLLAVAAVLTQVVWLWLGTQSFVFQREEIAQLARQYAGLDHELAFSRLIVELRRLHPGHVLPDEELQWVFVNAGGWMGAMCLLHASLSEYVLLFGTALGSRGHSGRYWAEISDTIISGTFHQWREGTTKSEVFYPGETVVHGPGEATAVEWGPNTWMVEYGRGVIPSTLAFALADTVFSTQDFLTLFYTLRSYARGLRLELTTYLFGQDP

On to `CC[C@H]1OC(=O)[C@H](C)[C@@H](O[C@H]2C[C@@](C)(OC)[C@@H](O)[C@H](C)O2)[C@H](C)[C@@H](O[C@@H]2O[C@H](C)C[C@H](N(C)C)[C@H]2O)[C@](C)(O)C[C@@H](C)C(=O)[C@H](C)[C@@H](O)[C@]1(C)O` [ERYTHROMYCIN], for which the IC50 entry in experiment [1] (jurkat), in experiment [2], in experiment [3], in experiment [4], in experiment [5] and in experiment [6] was “Not Active” in each case. The Ki entry in experiment [2], in experiment [4] and in experiment [5] was “Not Active” in each case.

In the case of `NC(N)=Nc1nc(CSCCC(N)=NS(N)(=O)=O)cs1` [FAMOTIDINE], the IC50 entry in experiment [1] (jurkat), in experiment [2], in experiment [3], in experiment [4], in experiment [5] and in experiment [6] was “Not Active” in each case. Further, the Ki result in experiment [2], in experiment [4] and in experiment [5] was “Not Active” in each case.

With `CN(CCOc1ccc(C[C@H](Nc2ccccc2C(=O)c2ccccc2)C(=O)O)cc1)c1ccccn1`, the IC50 entry in experiment [1] (jurkat), in experiment [2], in experiment [3], in experiment [4], in experiment [5] and in experiment [6] was “Not Active” throughout. In addition, the Ki entry in experiment [2], in experiment [4] and in experiment [5] was “Not Active” throughout.

Regarding `COc1cc(NC(C)CCCN)c2ncccc2c1` (configuration not stated) [PRIMAQUINE], the IC50 entry in experiment [1] (jurkat), in experiment [2], in experiment [3], in experiment [4], in experiment [5] and in experiment [6] was “Not Active” each time. Besides, the Ki result in experiment [2], in experiment [4] and in experiment [5] was “Not Active” each time.

As for `c1ccc2sc(SSc3nc4ccccc4s3)nc2c1` [BENZOTHIAZYL DISULFIDE], the IC50 entry in experiment [1] (jurkat), in experiment [2], in experiment [3], in experiment [4], in experiment [5] and in experiment [6] was “Not Active” each time. Moreover, the Ki result in experiment [2], in experiment [4] and in experiment [5] was “Not Active” throughout.

For `CC(C)(C#N)c1cc(Cn2cncn2)cc(C(C)(C)C#N)c1` [ANASTROZOLE], the IC50 result in experiment [1] (jurkat), in experiment [2], in experiment [3], in experiment [4], in experiment [5] and in experiment [6] was “Not Active” throughout. The Ki result in experiment [2], in experiment [4] and in experiment [5] was “Not Active” throughout.

Turning to `CC(=O)[C@]1(O)Cc2c(O)c3c(c(O)c2[C@@H](O[C@H]2C[C@H](N)[C@H](O)[C@H](C)O2)C1)C(=O)c1ccccc1C3=O` [IDARUBICIN], the IC50 result in experiment [1] (jurkat), in experiment [2], in experiment [3], in experiment [4], in experiment [5] and in experiment [6] was “Not Active” in each case. The Ki result in experiment [2], in experiment [4] and in experiment [5] was “Not Active” each time.

For the molecule `O=C(O)c1ccccc1` [BENZOIC ACID], the IC50 result in experiment [1] (jurkat), in experiment [2], in experiment [3], in experiment [4], in experiment [5] and in experiment [6] was “Not Active” each time. In addition, the Ki result in experiment [2], in experiment [4] and in experiment [5] was “Not Active” in each case.

As to `O=C(Nc1ccc(Cl)c(Cl)c1)c1cc(Cl)cc(Cl)c1O` [3,3',4',5-TETRACHLOROSALICYLANILIDE], the IC50 entry in experiment [1] (jurkat), in experiment [2], in experiment [3], in experiment [4], in experiment [5] and in experiment [6] was “Not Active” in each case. Further, the Ki entry in experiment [2], in experiment [4] and in experiment [5] was “Not Active” each time.

As to `CC(C)NCC(O)COc1ccc(CC(N)=O)cc1` (configuration not stated) [ATENOLOL], the IC50 result in experiment [1] (jurkat), in experiment [2], in experiment [3], in experiment [4], in experiment [5] and in experiment [6] was “Not Active” in each case. For the same molecule, the Ki entry in experiment [2], in experiment [4] and in experiment [5] was “Not Active” throughout.

On to `OC[C@H]1O[C@@H]2O[C@H]3[C@H](O)[C@@H](O)[C@@H](O[C@H]4[C@H](O)[C@@H](O)[C@@H](O[C@H]5[C@H](O)[C@@H](O)[C@@H](O[C@H]6[C@H](O)[C@@H](O)[C@@H](O[C@H]7[C@H](O)[C@@H](O)[C@@H](O[C@H]1[C@H](O)[C@H]2O)O[C@@H]7CO)O[C@@H]6CO)O[C@@H]5CO)O[C@@H]4CO)O[C@@H]3CO` [ALFADEX], for which the IC50 result in experiment [1] (jurkat), in experiment [2], in experiment [3], in experiment [4], in experiment [5] and in experiment [6] was “Not Active” in each case. In addition, the Ki result in experiment [2], in experiment [4] and in experiment [5] was “Not Active” in each case.

Take `CC(=O)Nc1ccc2c(c1)Cc1ccccc1-2` [2-ACETYLAMINOFLUORENE]: the half-inhibitory concentration (IC50) result in experiment [1] (jurkat), in experiment [2], in experiment [3], in experiment [4], in experiment [5] and in experiment [6] was “Not Active” throughout. Further, the Ki entry in experiment [2], in experiment [4] and in experiment [5] was “Not Active” each time.

As for `CCN1CCN(c2cc3c(cc2F)c(=O)c(C(=O)O)cn3C2CC2)CC1` [ENROFLOXACIN], the IC50 entry in experiment [1] (jurkat), in experiment [2], in experiment [3], in experiment [4], in experiment [5] and in experiment [6] was “Not Active” in each case. Further, the Ki result in experiment [2], in experiment [4] and in experiment [5] was “Not Active” each time.

For `O=C(O)CO` [GLYCOLIC ACID], the IC50 entry in experiment [1] (jurkat), in experiment [2], in experiment [3], in experiment [4], in experiment [5] and in experiment [6] was “Not Active” throughout. For the same molecule, the Ki result in experiment [2], in experiment [4] and in experiment [5] was “Not Active” throughout.

For `CN(Cc1cc(Br)cc(Br)c1N)C1CCCCC1` [BROMHEXINE], the IC50 in experiment [1] (read-out: IC50) was 61 nM; in experiment [2], “Not Active”; in experiment [3], “Not Active”; in experiment [4], “Not Active”; in experiment [5], “Not Active”; in experiment [6] it was “Not Active”. The Ki is 25 nM in experiment [1] (read-out: Ki), “Not Active” in experiment [2], “Not Active” in experiment [4] and “Not Active” in experiment [5].

`CC12CCC(CC1)C(C)(C)O2` [EUCALYPTOL]: the IC50 entry in experiment [1] (jurkat), in experiment [2], in experiment [3], in experiment [4], in experiment [5] and in experiment [6] was “Not Active” each time. Further, the Ki entry in experiment [2], in experiment [4] and in experiment [5] was “Not Active” each time.

Consider `C[C@@H]1[C@H](O)[C@@H](C)/C=C/C=C/C=C/C=C/C=C/C=C/C=C/[C@H](O[C@@H]2O[C@H](C)[C@@H](O)[C@H](N)[C@@H]2O)C[C@@H]2O[C@](O)(C[C@@H](O)C[C@@H](O)[C@H](O)CC[C@@H](O)C[C@@H](O)CC(=O)O[C@H]1C)C[C@H](O)[C@H]2C(=O)O` [AMPHOTERICIN B], for which the 50% inhibitory concentration (IC50) entry in experiment [1] (jurkat), in experiment [2], in experiment [3], in experiment [4], in experiment [5] and in experiment [6] was “Not Active” throughout. The Ki result in experiment [2], in experiment [4] and in experiment [5] was “Not Active” each time.

With `Cc1cc(C(C)(C)C)c(O)c(C)c1CC1=NCCN1` [OXYMETAZOLINE], the IC50 result in experiment [1] (jurkat) was “Not Active”; in experiment [2] (read-out: IC50), 2250 nM; in experiment [3], “Not Active”; in experiment [4], “Not Active”; in experiment [5], “Not Active”; in experiment [6], “Not Active”. For the same molecule, the values for the Ki in experiment [2] (read-out: Ki), in experiment [4] and in experiment [5] were 2180 nM, “Not Active” and “Not Active”, respectively.

With `CCN(CCO)CCCC(C)Nc1ccnc2cc(Cl)ccc12` (configuration not stated) [HYDROXYCHLOROQUINE], the IC50 entry in experiment [1] (jurkat), in experiment [2], in experiment [3], in experiment [4], in experiment [5] and in experiment [6] was “Not Active” in each case. Also, the Ki entry in experiment [2], in experiment [4] and in experiment [5] was “Not Active” in each case.

The values above are taken from ChEMBL document CHEMBL1909046, “DrugMatrix in vitro pharmacology data”.
